Test results as given in patent US20050165025A1, “Combination therapy with 5HT 1A and 5HT 1B-receptor antagonists” (Recordati Ireland Ltd., priority 2004, published 2005).
Where two headings read alike, the source gives them in different places. Each block holds one compound with its values, some of them ahead of it.

Tests used:
[1] = target: T1, human 5HT1A-serotonergic receptor (Homo sapiens, UniProt P08908); conditions: literature reference given in table; read-out: Binding affinity at 5HT1A receptors, Ki; cited from earlier work
T1 construct: expressed in transfected cells; host or cells: HeLa (human), stably transfected; cell membranes
T1 sequence (P08908 1-422): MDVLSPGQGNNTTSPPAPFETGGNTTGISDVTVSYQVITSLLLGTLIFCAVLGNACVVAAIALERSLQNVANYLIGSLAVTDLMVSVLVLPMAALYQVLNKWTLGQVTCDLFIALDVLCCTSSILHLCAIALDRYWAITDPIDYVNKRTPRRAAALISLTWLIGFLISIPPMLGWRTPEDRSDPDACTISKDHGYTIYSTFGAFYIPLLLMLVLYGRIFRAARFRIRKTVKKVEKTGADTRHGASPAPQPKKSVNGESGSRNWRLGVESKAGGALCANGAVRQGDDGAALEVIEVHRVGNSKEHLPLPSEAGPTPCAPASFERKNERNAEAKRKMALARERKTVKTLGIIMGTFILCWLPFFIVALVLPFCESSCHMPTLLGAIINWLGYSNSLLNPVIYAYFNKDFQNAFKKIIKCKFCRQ

[2] = system: anaesthetised rats; assay: Rhythmic bladder-voiding contractions induced by bladder filling in anaesthetised rats; assay type: in vivo, rat; conditions: compound alone
Procedure: Female Sprague-Dawley rats weighing 225-275 g (Crl: CDo Br, Charles River Italia) were used. The animals were housed with free access to food and water and maintained on a forced 12-hour alternating light-dark cycle at 22-24° C. for at least one week, except during the experiment. The activity on rhythmic bladder voiding contractions was evaluated according to the method of Dray J., Pharmacol. Methods, 13:157, 1985, with some modifications as in Guarneri (Guarneri, Pharmacol. Res. 27:173, 1993. Briefly, the rats were anaesthetised by subcutaneous injection of 1.25 g/kg (5 ml/kg) urethane, after which the urinary bladder was catheterised via the urethra using PE 50 polyethylene tubing filled with physiological saline. The catheter was tied in place with a ligature around the external urethral orifice and was connected to conventional pressure transducers (Statham P23 ID/P23 XL). […] The bladder was then filled via the recording catheter by incremental volumes of warm (37° C.) saline until reflex bladder-voiding contractions occurred (usually 0.8-1.5 ml). For intravenous injection of bioactive compounds, PE 50 polyethylene tubing filled with physiological saline was inserted into the jugular vein. Tested compounds were administered or co-administered in solution in a final volume of 0.5 ml/kg.
From the cystometrogram, the number of contractions recorded 15 minutes before (basal values) and after treatment, as well as the mean amplitude of these contractions (mean height of the peaks in mmHg), was evaluated.
Since most compounds produced an effect that was relatively rapid in onset and led to a complete cessation of bladder contractions, bioactivity was conveniently estimated by measuring the duration of bladder quiescence (i.e., the length of the time in minutes during which no contractions occurred: disappearance time=DT). The administered doses (alone or in combination) of the tested compounds were chosen on the basis of previously published results obtained with the same compounds in the utilized model (Testa et al., J. Pharmacol. Exp. Ther. 290: 1258, 1999; Leonardi et al., J. Pharmacol. Exp. Ther. 299: 1027, 2001; Testa et al., BJU Int. 87: 256, 2001) or of their affinity for the 5HT1A or 5-HT1B receptor.

[3] = target: T1, human 5HT1A-serotonergic receptor; assay: Radioligand binding to recombinant 5-HT1A receptors ([3H]8-OH-DPAT, HeLa cell membranes); conditions: Recordati data on file; read-out: Binding affinity at 5HT1A receptors, Ki
Procedure: Genomic clone G-21 coding for the human 5HT1A-serotonergic receptor was stably transfected in a human cell line (HeLa). HeLa cells were grown as monolayers in Dulbecco's modified Eagle medium (DMEM), containing 10% fetal bovine serum, gentamicin ([…]) and 5% carbon dioxide, at 37° C. The cells were detached from the growth flask at 95% confluence by a cell scraper and were lysed in cold 5 mM Tris and 5 mM EDTA buffer (pH 7.4). The homogenates were centrifuged at 40000×g×20 minutes and the pellets were resuspended in a small volume of cold 5 mM Tris and 5 mM EDTA buffer (pH 7.4) and immediately frozen and stored at −70° C. until use. On the day of experiment, the cell membranes were resuspended in incubation buffer: 50 mM Tris HCl (pH 7.4), 2.5 mM MgCl2, […] (Fargin et al., Nature 335, 358, 1988). The membranes were incubated in a fmal volume of 1 ml for 30 minutes at 30° C. with 1 nM [^3H]8—OH-DPAT, in the absence or presence of the test compounds. Non-specific binding was determined in the presence of 10 μM 5-HT. […]
The affinity of the tested compounds was evaluated as inhibition of specific binding of the radioligand to 5-HT1A receptors (IC50) by using the non-linear curve-fitting program Allfit (De Lean et al., Am. J. Physiol. 235: E97, 1978). […]

SMILES: COc1ccccc1N1CCN(CCN(C(=O)C2CCCCC2)c2ccccc2[N+](=O)[O-])CC1 [REC 15/3079, 1-[N-(2-nitrophenyl)-N-cyclohexylcarbonyl-2-aminoethyl]-4-(2-methoxyphenyl)piperazine]
- Ki [1]: 0.2 nM
- disappearance time (DT) of bladder contractions ([2]; 0.03 mg/kg i.v.): 2.26 ± 0.51 min

SMILES: O=C1c2ccccc2S(=O)(=O)N1CCCCN1CCN(c2cc(Cl)cc3c2OCCO3)CC1 [Rec 0/031 1-DU 125530, 2-[4-[4-(7-chloro-2,3-dihydro-1,4-benzodioxin-5-yl)piperazin-1-yl]butyl]-1,2-benzisothiazol-3(2H)-one 1,1-dioxide]
- disappearance time (DT) of bladder contractions ([2]; 0.01 mg/kg i.v.): 6.96 ± 1.05 min

- Ki [3]: 4.75 nM
SMILES: OC(CCN1CCN(c2cccc3[nH]ccc23)CC1)(c1ccccn1)c1ccccn1 [Rec 27/0206, 1-[3-hydroxy-3,3 bis-(2-pyridyl)propyl]-4-(4-indolyl)piperazine]
- disappearance time (DT) of bladder contractions ([2]; 0.1 mg/kg i.v.): 9.29 ± 0.80 min

SMILES: COc1ccc(NC(=O)c2ccc(-c3ccc(-c4noc(C)n4)cc3C)cc2)cc1OCCN(C)C [SB 216641]
- disappearance time (DT) of bladder contractions ([2]; 0.3 mg/kg i.v.): 1.50 ± 0.28 min

SMILES: Cc1nc(-c2ccc(-c3ccc(C(=O)N4CCc5cc6c(cc54)C4(CCN(C)CC4)CO6)cc3)c(C)c2)no1 [SB 224289]
- disappearance time (DT) of bladder contractions ([2]; 1.0 mg/kg i.v.): 2.40 ± 0.46 min

SMILES: COc1ccccc1N1CCN(CCN(C(=O)C2CCCCC2)c2ccccn2)CC1 [WAY 100635, N-[2-[4-(2-methoxyphenyl)piperazin-1-yl]ethyl]-N-(2-pyridyl)cyclohexanecarboxamide]
- disappearance time (DT) of bladder contractions ([2]; 0.01 mg/kg i.v.): 10.39 ± 1.45 min
